Results taken from the NIST ThermoML archive (doi:10.1016/j.jct.2012.06.012).

Assay: xn = mol fraction of the nth substance listed
Details: Liquid, Vibrating tube method

CCCCCCCCCC [decane] + CCO
Details	mass density [kg/m3]
332.86 K, 16000 kPa, x2 = 0.0937	713.17
332.86 K, 16000 kPa, x2 = 0.9014	751.15
332.86 K, 17000 kPa, x2 = 0.0937	714.01
332.86 K, 17000 kPa, x2 = 0.9014	752.07
332.86 K, 18000 kPa, x2 = 0.0937	714.82
332.86 K, 18000 kPa, x2 = 0.9014	752.96
332.86 K, 19000 kPa, x2 = 0.0937	715.64
332.86 K, 19000 kPa, x2 = 0.9014	753.84
332.86 K, 20000 kPa, x2 = 0.0937	716.42
332.86 K, 20000 kPa, x2 = 0.9014	754.71
332.87 K, 1000 kPa, x2 = 0.1011	699.31
332.87 K, 1000 kPa, x2 = 0.4963	707.52
332.87 K, 2000 kPa, x2 = 0.1011	700.32
332.87 K, 2000 kPa, x2 = 0.4963	708.54
332.87 K, 3000 kPa, x2 = 0.1011	701.31
332.87 K, 3000 kPa, x2 = 0.4963	709.55
332.87 K, 4000 kPa, x2 = 0.1011	702.29
332.87 K, 4000 kPa, x2 = 0.4963	710.55
332.87 K, 5000 kPa, x2 = 0.1011	703.26
332.87 K, 5000 kPa, x2 = 0.4963	711.53
332.87 K, 6000 kPa, x2 = 0.1011	704.21
332.87 K, 6000 kPa, x2 = 0.4963	712.5
332.87 K, 7000 kPa, x2 = 0.1011	705.15
332.87 K, 7000 kPa, x2 = 0.4963	713.48
332.87 K, 8000 kPa, x2 = 0.1011	706.08
332.87 K, 8000 kPa, x2 = 0.4963	714.46
332.87 K, 9000 kPa, x2 = 0.1011	707
332.87 K, 9000 kPa, x2 = 0.4963	715.43
332.87 K, 10000 kPa, x2 = 0.1011	707.91
332.87 K, 10000 kPa, x2 = 0.4963	716.38
332.87 K, 11000 kPa, x2 = 0.1011	708.83
332.87 K, 11000 kPa, x2 = 0.4963	717.33
332.87 K, 12000 kPa, x2 = 0.1011	709.73
332.87 K, 12000 kPa, x2 = 0.4963	718.27
332.87 K, 13000 kPa, x2 = 0.1011	710.62
332.87 K, 13000 kPa, x2 = 0.4963	719.21
332.87 K, 14000 kPa, x2 = 0.1011	711.51
332.87 K, 14000 kPa, x2 = 0.4963	720.13
332.87 K, 15000 kPa, x2 = 0.1011	712.38
332.87 K, 15000 kPa, x2 = 0.4963	721.03
332.87 K, 16000 kPa, x2 = 0.1011	713.23
332.87 K, 16000 kPa, x2 = 0.4963	721.92
332.87 K, 17000 kPa, x2 = 0.1011	714.07
332.87 K, 17000 kPa, x2 = 0.4963	722.8
332.87 K, 18000 kPa, x2 = 0.1011	714.88
332.87 K, 18000 kPa, x2 = 0.4963	723.66
332.87 K, 19000 kPa, x2 = 0.1011	715.69
332.87 K, 19000 kPa, x2 = 0.4963	724.5
332.87 K, 20000 kPa, x2 = 0.1011	716.47
332.87 K, 20000 kPa, x2 = 0.4963	725.32
332.91 K, 1000 kPa, x2 = 0.7526	720.88
332.91 K, 2000 kPa, x2 = 0.7526	721.93
332.91 K, 3000 kPa, x2 = 0.7526	722.96
332.91 K, 4000 kPa, x2 = 0.7526	723.98
332.91 K, 5000 kPa, x2 = 0.7526	725
332.91 K, 6000 kPa, x2 = 0.7526	726.01
332.91 K, 7000 kPa, x2 = 0.7526	727.02
332.91 K, 8000 kPa, x2 = 0.7526	728.03
332.91 K, 9000 kPa, x2 = 0.7526	729.03
332.91 K, 10000 kPa, x2 = 0.7526	729.99
332.91 K, 11000 kPa, x2 = 0.7526	730.98
332.91 K, 12000 kPa, x2 = 0.7526	731.94
332.91 K, 13000 kPa, x2 = 0.7526	732.91
332.91 K, 14000 kPa, x2 = 0.7526	733.85
332.91 K, 15000 kPa, x2 = 0.7526	734.78
332.91 K, 16000 kPa, x2 = 0.7526	735.69
332.91 K, 17000 kPa, x2 = 0.7526	736.6
332.91 K, 18000 kPa, x2 = 0.7526	737.48
332.91 K, 19000 kPa, x2 = 0.7526	738.35
332.91 K, 20000 kPa, x2 = 0.7526	739.19
332.97 K, 1000 kPa, x2 = 0.2507	701.45
332.97 K, 2000 kPa, x2 = 0.2507	702.46
332.97 K, 3000 kPa, x2 = 0.2507	703.46
332.97 K, 4000 kPa, x2 = 0.2507	704.44
332.97 K, 5000 kPa, x2 = 0.2507	705.41
332.97 K, 6000 kPa, x2 = 0.2507	706.36
332.97 K, 7000 kPa, x2 = 0.2507	707.31
332.97 K, 8000 kPa, x2 = 0.2507	708.26
332.97 K, 9000 kPa, x2 = 0.2507	709.21
332.97 K, 10000 kPa, x2 = 0.2507	710.12
332.97 K, 11000 kPa, x2 = 0.2507	711.06
332.97 K, 12000 kPa, x2 = 0.2507	711.97
332.97 K, 13000 kPa, x2 = 0.2507	712.88
332.97 K, 14000 kPa, x2 = 0.2507	713.78
332.97 K, 15000 kPa, x2 = 0.2507	714.65
332.97 K, 16000 kPa, x2 = 0.2507	715.53
332.97 K, 17000 kPa, x2 = 0.2507	716.38
332.97 K, 18000 kPa, x2 = 0.2507	717.21
332.97 K, 19000 kPa, x2 = 0.2507	718.03
332.97 K, 20000 kPa, x2 = 0.2507	718.82
